Measured values as given in paper PMC3436176 (The Journal of Biological Chemistry, 2012).

Experiments:
GPVI-Fc2 (GPVI dimer) = target: T1, GPVI-Fc2 (GPVI dimer) (Homo sapiens, UniProt Q9HCN6); experiment: ELISA: GPVI dimer binding to immobilized collagenous substrates; settings: for Kd (monomer)/Kd (dimer): binding to collagenous substrates
T1 sequence (Q9HCN6 21-214 limits assumed): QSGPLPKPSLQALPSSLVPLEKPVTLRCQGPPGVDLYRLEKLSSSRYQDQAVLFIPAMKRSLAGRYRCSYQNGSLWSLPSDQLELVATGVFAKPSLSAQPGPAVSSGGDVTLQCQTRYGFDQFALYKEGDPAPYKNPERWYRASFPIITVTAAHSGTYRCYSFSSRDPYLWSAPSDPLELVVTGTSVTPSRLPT

GPVI on platelets = experiment: Flow cytometric GPVI quantitation; type: cell-based, human; settings: dimers versus resting platelets
[1] = test system: GPVI dimer on washed platelets; experiment: Time and agonist concentration dependence of dimer increase; type: cell-based, human
[2] = CRP 5 μg/ml or thrombin 0.2 unit/ml, washed platelets 2.5 × 10^8 cells/ml

Row | Kd (monomer)/Kd (dimer) (GPVI-Fc2 (GPVI dimer)) | Hill coefficient for dimer binding (GPVI-Fc2 (GPVI dimer); mean ± S.E., n = 4-12 as printed) | Substance | % increase after activation (GPVI on platelets) [%] | time after which dimer levels started to increase [1, 2] [s] | time at which dimer level reaches a maximum [1, 2] [min] | agonist concentration at which dimer level reaches a maximum ([1]; washed platelets 1 × 10^8 cells/ml, FITC-m-Fab-F 100 μg/ml) [unit/ml]
1 | 194.3 | 1.14 ± 0.07 | Collagen type I: Pepsin-treated bovine type I collagen from Koken | – | – | – | –
2 | 887.0 | – | GPC–(GPP)5–GAOGARGGAGPOGPEGGKGAAGPOGPO(GPP)5–GPC–NH2 [III-30A] | – | – | – | –
3 | – | – | Thrombin: bovine thrombin (Sigma), platelet agonist | 55 | 30 | 4 to 5 | > 0.5
